Data on 1 cell line can be found in the supplement of paper PMC10307832.

Holding throughout (assay): relative viability (nuclei count vs DMSO), 5 days (fraction); higher = more cells survive
Compound in assay [1]: C1=CC2=C(C=CC(=C2)C=C3C(=O)NC(=NCC4=CC=CS4)S3)N=C1 [RO-3306] + CCNC(=O)c1noc(-c2cc(C(C)C)c(O)cc2O)c1-c1ccc(CN2CCOCC2)cc1 [Luminespib] (partner 0.01 µM)
In a few lines:
(§1)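 Lung cancer cell lines were pin-tool dosed in 1536-well plates on the day after seeding, with either a lone drug or a fixed anchor-drug dose plus five library-drug doses (not always all listed) in √10 steps. Nuclei were counted on 4× images after 5 days. Relative viability is the ratio of treated-well to vehicle-well nuclei counts, with each value a median of duplicate plates.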

Compound in assay [2]: C1=CC2=C(C=CC(=C2)C=C3C(=O)NC(=NCC4=CC=CS4)S3)N=C1 [RO-3306] + Cc1nc(NC(=O)N2CCC[C@H]2C(N)=O)sc1-c1ccnc(C(C)(C)C(F)(F)F)c1 [Alpelisib] (partner 2 µM)
The procedure, abridged: as §1

Compound in assay [3]: O=S(=O)(c1ccccc1)N(CC(F)(F)F)c1ccc(C(O)(C(F)(F)F)C(F)(F)F)cc1 + CC(=O)c1c(C)c2cnc(Nc3ccc(N4CCNCC4)cn3)nc2n(C2CCCC2)c1=O [Palbociclib] (partner 0.5 µM)
In a few lines: as §1

Compound in assay [4]: O=S(=O)(c1ccccc1)N(CC(F)(F)F)c1ccc(C(O)(C(F)(F)F)C(F)(F)F)cc1 + COc1cc2c(Oc3ccc(NC(=O)C4(C(=O)Nc5ccc(F)cc5)CC4)cc3F)ccnc2cc1OCCCN1CCOCC1 [Foretinib] (partner 0.25 µM)
The procedure, abridged:
as §1

Compound in assay [5]: O=S(=O)(c1ccccc1)N(CC(F)(F)F)c1ccc(C(O)(C(F)(F)F)C(F)(F)F)cc1 + Cc1nc(NC(=O)N2CCC[C@H]2C(N)=O)sc1-c1ccnc(C(C)(C)C(F)(F)F)c1 [Alpelisib] (partner 2 µM)
The procedure, abridged:
as §1

For the cell line UMC-11, the relative viability in assay [1] (first compound 0.01 µM) was 0.955; in assay [1] (first compound 0.03162 µM), 0.908; in assay [1] (first compound 0.1 µM) it was 1.05; in assay [1] (first compound 0.3162 µM), 1.08; in assay [1] (first compound 1 µM) it was 1.06; in assay [2] (first compound 0.01 µM), 1.03. The relative viability in assay [2] (first compound 0.03162 µM) was determined as 0.753; in assay [2] (first compound 0.1 µM), 0.948; in assay [2] (first compound 0.3162 µM), 1.18; in assay [2] (first compound 1 µM), 1.12; in assay [3] (first compound 0.8 µM) it was 0.339; in assay [3] (first compound 2.53 µM), 0.346. Besides, the relative viability turned out to be 0.311 in assay [3] (first compound 8 µM); 1.16 in assay [4] (first compound 0.8 µM); 1.12 in assay [4] (first compound 2.53 µM); 1.08 in assay [4] (first compound 8 µM); 1.24 in assay [5] (first compound 0.8 µM); 0.98 in assay [5] (first compound 2.53 µM). In assay [5] (first compound 8 µM), the relative viability is 1.25.
